# From US6277383A, “Ryegrass pollen allergen” (University of Melbourne, priority 1995, dated 2001)
# Assays:
# [1] = system: IgE affinity purified from recombinant allergens and IgE from whole serum of allergic individuals; assay: Two-dimensional Western blot: IgE binding to allergens; set-up: species or system human; details: IgE preparations that bind: AP12R, AP13R, AP19R = affinity purified from recombinant Lol p Ib.1 fragment IH, Lol p Ia clone 13R, Lol p Ib.2; TIgE = whole serum
# Description: Serum used in the experiment to identify allergen regions of Lol p Ia and Lol p Ib was collected by Dr. R. Phomley at the Epworth Hospital (Richmond, Australia) from patients with a history of allergy to ryegrass pollen and a positive skin test to ryegrass pollen extract. IgE was affinity-purified from recombinant allergens as previously described (Singh, et al., (1991) Proc. Nat'l Acad. Sci. USA, […]; Example 2) except recombinant proteins were derived from lambda-gt11 culture rather than pGEX cultures.
# (§1) Two dimensional (2D)-PAGE was performed in a mini-Protean II 2-D cell (Biorad, Richmond, Calif.) according to the manufacturer instructions. The proteins were diluted 1:1 in 4% CHAPS. […] The first dimension gel was run for 3.5 hours. The econd dimension gel was run for 45 minutes. Proteins on 2D-PAGE gels were silver stained to reveal the protein profile.
# Conditions for electrophoresis and Western blotting and for the processing of Western blots with MAbs and IgE were as described by Singh, et al., (1985) Int. Arch. Allergy Appl. Immun., 78:300.
# MAb 40.1 = assay: Antibody screening of lambda-gt 11 cDNA clones: binding of MAb 40.1; set-up: key: ++: strongest binding; -: no binding; details: protein expressed by lambda-gt 11 clone in E. coli Y1090, plaque lift
# Method: (§2) Poly (A+) mRNA isolated from mature rye grass pollen by the phenol method ([…] and Michaels, (1984) Plant Mol. Biol. Rep., 2:24-28) was used to construct a cDNA library in the vector lambda-gt 11. The library was then screened with antibody probes to detect sequences expressing Group I proteins. E. coli […] transfected with 3×10^4 recombinant phages were plated and incubated at 42° C. for 3 h. The plates were overlaid with a dry 132 mm nitrocellulose (NC) filter previously soaked in 10 mm IPTG and transferred to 37° C. After incubation for 3 h the filters were carefully peeled off and incubated in 20 ml per filter of MTBS (10% w/v non-fat milk powder, 50 mm Tris-HCI, pH 7.6, 150 mM Nacl) for 30 min. at room temperature. A second set of NC filters was placed on phage plates and after incubating for 3 h were treated as above. Both sets of NC filters were tested for binding of MAb 40.1 to plaques by the method described in Huynh et al. (1985) In: DNA Cloning, a practical approach, Glover, D. M. (ed.) Vol. 1, pp. 49-78, IRL Press, Oxford, England. The antibody positive plaques were picked, purified, then replated and tested for binding to probes. The positive clones were plaque-purified and tested for IgE binding using sera from grass pollen-allergic subjects. Eighteen clones were selected as encoding proteins recognized by both Lol p I-specific MAbs and IgE antibodies (Table 1). The largest of the cDNA clones, 1.2kb in size, that expressed rye-grass allergenic protein was initially selected for further characterization and sequencing, and designated clone lambda-12R (FIG. 1a).
# MAb 12.3 = assay: Antibody screening of lambda-gt 11 cDNA clones: binding of MAb 12.3; set-up: key to Binding of MAb 12.3: ++: strongest binding; -: no binding; details: protein expressed by lambda-gt 11 clone in E. coli Y1090, plaque lift
# Method: as §2
# [2] = Two dimensional gel electrophoresis of ryegrass pollen proteins (pI); assay type: physicochemical, Lolium perenne; details: allergen spot on two dimensional gel
# Method: as §1
# [3] = system: IgE from sera of allergic indivs.; assay: Screening of lambda-gt 11 cDNA clones for IgE binding; set-up: species or system human; key: ++: strongest binding; -: no binding; details: protein expressed by lambda-gt 11 clone, plaque lift
# Method: as §2
# [4] = system: human IgE of individual sera; assay: Peptide dot blot immunoassay: human IgE; assay type: binding; details: for IgE Binding (symbol): sera diluted 1:4
# Method: (§3) The peptides were dissolved in water to give a 1.6 mM stock solution. Insoluble peptides were dissolved by sonication (Branson Sonifier 450, USA) for 1 minute.
# (§4) The peptides were immobilized onto nitrocellulose (NC) filter by using a modified method published elsewhere (Sithigonglu (1991) J. Immunol. Methods, 141:23-32). Two μl of the peptide stock solutions were spotted on the NC filter (Schleicher & Schuell, W. Germany) about 1 cm apart. After the strips were dried and baked at 80° C. for one hour, they were fixed by exposure, in a tightly sealed plastic box, to vapor from 0.2% glutaraldehyde in PBS at room temperature (18° C.) for one hour. After washing thoroughly with distilled water, the NC filters were blocked with Blotto (10% non-fat dry milk in PBS) for two hours and washed in 1×Tween-PBS (0.1% Tween-20 in PBS) and 2×PBS, five minutes each.
# (§5) The peptides were then screened for human IgE and mouse/rabbit IgG epitopes with individual sera (diluted 1:4 in PBS with 0.5% BSA), MAbs FMC A7 (Smart et al. (1983) Int. Arch. Allergy Clin. Immunol. 72: 243) and polyclonal rabbit anti-Lol p Ib antibody. The rabbit anti-sera was a gift from Dr. Jenny Roland, Alfred Hospital, Melbourne, Australia.
# (§6) The intensity of each dot blot was measured by densitometer (Pharmacia LKB UltraScan XL, Sweden). Densitometric values greater than two were considered as positive binding in comparison to the background. For every peptide, the sera and antibody values have been added (score/peptide) and divided by the number of positive sera to express the final value as an average (score/sera). Sera C1 and C2 were not grass allergic and were used as negative controls. C refers to crude ryegrass pollen extract (1 μg/dot) as positive control.
# [5] = system: Mab FMC-A7 and rabbit polyclonal anti-Lol p Ib antiserum; assay: Peptide dot blot immunoassay: mouse/rabbit IgG; assay type: binding
# Method: as §3, §4, §5, §6
Sequence,Binding of MAb 40.1 (MAb 40.1),Binding of MAb 12.3 (MAb 12.3),IgE binding [1],pI [2],Binding of IgE from sera of allergic indivs. [3],IgE Binding (symbol) [4],Human IgE-reactivity (in words) [4],Mouse/rabbit IgG-reactivity (in words) [5]
AMTQAQKAGKPA [Peptide 30],,,,,,+ (Densitometric values greater than two were considered as positive binding),highest human IgE-reactivity,
ATAANAAPTNDK [Peptide 21],,,,,,+ (Densitometric values greater than two were considered as positive binding),highest human IgE-reactivity,
ESAFNKALNECT [Peptide 23],,,,,,+ (Densitometric values greater than two were considered as positive binding),highest human IgE-reactivity,highest mouse/rabbit IgG-reactivity
YAATVAAPEVKY [Peptide 27],,,,,,+ (Densitometric values greater than two were considered as positive binding),,
GELQIVDKIDAA [Peptide 19],,,,,,+ (Densitometric values greater than two were considered as positive binding),highest human IgE-reactivity,highest mouse/rabbit IgG-reactivity
AALTKAITAMTQA [Peptide 29],,,,,,+ (Densitometric values greater than two were considered as positive binding),,
ETYKFIPSLEAA [Peptide 25],,,,,,+ (Densitometric values greater than two were considered as positive binding),,
GAATAAAGGYKA [Peptide 34],,,,,,+ (Densitometric values greater than two were considered as positive binding),highest human IgE-reactivity,
EVKYAVFEAALT [Peptide 28],,,,,,,,highest mouse/rabbit IgG-reactivity
AATPAAAGGKAT [Peptide 3],++,,AP13R TIgE,6.45,-,,,

# Second part, led by results:
Binding of MAb 40.1 (MAb 40.1),Binding of MAb 12.3 (MAb 12.3),Sequence,IgE binding [1],pI [2],Binding of IgE from sera of allergic indivs. [3],IgE Binding (symbol) [4],Human IgE-reactivity (in words) [4],Mouse/rabbit IgG-reactivity (in words) [5]
-,-,ALTEGLRVIAGA [Peptide 15],TIgE,9,-,,,
++,,KLLEDVNAGFKA [Peptide 5],"AP12R,AP19R and TIgE",6,-,+ (Densitometric values greater than two were considered as positive binding),,
++,,GFKAAVAAAANA [Peptide 6],"AP12R,AP19R and TIgE",6.45,-,+ (Densitometric values greater than two were considered as positive binding),,
++,,AAEGATPEAKYD [Peptide 13],TIgE,7,,+ (Densitometric values greater than two were considered as positive binding),,
-,-,FSESSKGLLATS [Peptide 9],"AP12R,AP19R and TIgE",7.2,-,,,
++,,AAATPATPAATPA [Peptide 2],AP13R TIgE,5.9,-,,,
++,++,AKYDAFVTALTE [Peptide 14],TIgE,7.3,++,,,
++,,GKATTDEQKLLE [Peptide 4],AP13R TIgE,7,-,,,
++,++,TAYDVAYKAAEG [Peptide 12],"AP12R,AP19R and TIgE",8.0,++,,,
++,,PGLIPKLNTAYD [Peptide 11],"AP12R,AP19R and TIgE",10.6,-,,,
++,,AVKPATEEVPAA [Peptide 17],TIgE,< 5.65,-,,,
-,-,LATSAAKAPGLI [Peptide 10],"AP12R,AP19R and TIgE",8.3,-,+ (Densitometric values greater than two were considered as positive binding),,
++,++,VPAAKIPTGELQI [Peptide 18],,,++,+ (Densitometric values greater than two were considered as positive binding),,
++,,IAGALEVHAVKPA [Peptide 16],TIgE,< 5.65,-,+ (Densitometric values greater than two were considered as positive binding),highest human IgE-reactivity,
-,-,KFKIFEAAFSES [Peptide 8],"AP12R,AP19R and TIgE",6.45,-,,,
